In ChEMBL document CHEMBL3727363, “Imidazothiadiazole derivatives as protease activated receptor 4 (PAR4) inhibitors for treating platelet aggregation” (2013):
pIC50: −log10 of the molar value. Values belong to the molecule of their own block, whether it stands above or below them.

Assays:
[1] = target: T1, Proteinase-activated receptor 4 (Homo sapiens, UniProt Q96RI0); assay: Antagonist activity against human PAR4 expressed in HEK293 cells assessed as reduction in H-Ala-Phe(4-F)-Pro-Gly-Trp-Leu-Val-Lys-Asn-Gly-NH2-induced intracellular calcium mobilization incubated for 30 mins before agonist addition by FLIPR assay; assay type: functional, cell-based
T1 sequence (Q96RI0 whole entry): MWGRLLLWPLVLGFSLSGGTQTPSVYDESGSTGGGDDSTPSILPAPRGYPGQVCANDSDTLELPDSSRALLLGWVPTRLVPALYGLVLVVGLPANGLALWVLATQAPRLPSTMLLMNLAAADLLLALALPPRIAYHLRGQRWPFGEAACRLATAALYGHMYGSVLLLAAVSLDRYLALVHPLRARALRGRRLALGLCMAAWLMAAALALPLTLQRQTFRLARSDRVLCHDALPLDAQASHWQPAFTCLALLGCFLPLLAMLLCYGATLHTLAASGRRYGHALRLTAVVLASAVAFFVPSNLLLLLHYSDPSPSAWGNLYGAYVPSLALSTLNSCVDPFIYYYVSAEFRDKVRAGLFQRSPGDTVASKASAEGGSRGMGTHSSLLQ

[2] = system: Cynomolgus monkey; assay: Antithrombotic activity in cynomolgus monkey model of electrolytic injury-induced carotid artery thrombosis assessed as reduction in thrombosis-induced occlusion by measuring thrombus weight at 2 mg/kg, po dosed 1 to 2 hrs before test; assay type: functional, Macaca fascicularis; design: scale not given: the % may be the effect or the level left
[3] = system: Cynomolgus monkey; assay: Antithrombotic activity in cynomolgus monkey model of electrolytic injury-induced carotid artery thrombosis assessed as reduction in thrombosis-induced occlusion by measuring thrombus weight at 10 mg/kg, po dosed 1 to 2 hrs before test; assay type: functional, Macaca fascicularis; design: scale not given: the % may be the effect or the level left
[4] = system: Cynomolgus monkey; assay: Antithrombotic activity in cynomolgus monkey model of electrolytic injury-induced carotid artery thrombosis assessed as reduction in thrombosis-induced occlusion by measuring thrombus weight at 0.4 mg/kg, po dosed 1 to 2 hrs before test; assay type: functional, Macaca fascicularis; design: scale not given: the % may be the effect or the level left
[5] = target: T2, Proteinase-activated receptor 4 (Homo sapiens) (UniProt Q96RI0); assay: Antagonist activity against PAR4 in washed human platelets assessed as inhibition of 5 nM alpha-thrombin-induced platelet aggregation pre-incubated for 5 mins before alpha-thrombin addition by optical aggregometry; assay type: functional
T2 sequence (whole entry): T1 sequence (Q96RI0 whole entry)

[6] = target: T2, Proteinase-activated receptor 4 (Homo sapiens); assay: Antagonist activity against PAR4 in washed human platelets assessed as inhibition of […] alpha-thrombin-induced platelet aggregation pre-incubated for 5 mins before alpha-thrombin addition by optical aggregometry; assay type: functional

pIC50 [1]: 7.42
SMILES: COc1nn2cc(-c3cc4ccc([N+](=O)[O-])cc4o3)nc2s1

pIC50 [1]: 7.96
SMILES: COc1cccc2oc(-c3cn4nc(SC)sc4n3)cc12

The next lines start with the molecule.

SMILES: CSc1nn2cc(-c3cc4c(C(F)(F)F)cc(C)nc4o3)nc2s1
pIC50 [1]: 8.09

SMILES: COc1cc(OCc2cccc(OCc3ccc(OC)c(C)c3C)c2)c2cc(-c3cn4nc(OC)sc4n3)oc2c1
pIC50 [1]: 8.26

SMILES: COc1cc(OCc2cccc(OCc3ccccc3)c2)c2cc(-c3cn4nc(OC)sc4n3)oc2c1
Activity [2]: -38%
Activity [3]: -38%
Activity [4]: -9%

SMILES: COc1cc(OCc2ccccc2)c2cc(-c3cn4nc(OC)sc4n3)oc2c1
inhibition [5]: Dose-dependent effect
inhibition [6]: Dose-dependent effect
